Like-named read-outs stand apart in the source and are kept apart here.
Experiments:
S. aureus RN450 = assay: In Vitro Anti-Bacterial Activity Assay (MIC), gram positive; type: cell-based; settings: Staphylococcus aureus, RN450, 18 h, gram positive bacteria; read-out: Antibiotic Activity Gram + (MIC)
E. coli mL308 225 = assay: In Vitro Anti-Bacterial Activity Assay (MIC), gram negative; type: cell-based; settings: Escherichia coli, ML308225, 18 h, read-out: Antibiotic Activity Gram − (MIC)

SMILES | MIC (S. aureus RN450) [mg/L] | MIC (E. coli mL308 225; gram negative bacteria) [mg/L] | MIC (E. coli mL308 225) [mg/L]
CN(C)c1cc(CNOC(C)(C)C)c(O)c2c1C[C@H]1C[C@H]3[C@H](N(C)C)C(O)=C(C(N)=O)C(=O)[C@@]3(O)C(O)=C1C2=O | < 4 | < 4 | –
COc1cccc(CNCc2cc(N(C)C)c3c(c2O)C(=O)C2=C(O)[C@]4(O)C(=O)C(C(N)=O)=C(O)[C@@H](N(C)C)[C@@H]4C[C@@H]2C3)c1 | < 4 | > 4 | –
CN(C)Cc1cc(-c2ccoc2)c2c(c1O)C(=O)C1=C(O)[C@]3(O)C(=O)C(C(N)=O)=C(O)[C@@H](N(C)C)[C@@H]3C[C@@H]1C2 | < 4 | > 4 | –
CN(C)c1cc(CNCc2ccccc2F)c(O)c2c1C[C@H]1C[C@H]3[C@H](N(C)C)C(O)=C(C(N)=O)C(=O)[C@@]3(O)C(O)=C1C2=O | < 4 | > 4 | –
CN(C)[C@@H]1C(O)=C(C(N)=O)C(=O)[C@@]2(O)C(O)=C3C(=O)c4c(O)ccc(-c5cncc(CO)c5)c4C[C@H]3C[C@@H]12 | < 4 | > 4 | –
CN(C)[C@@H]1C(O)=C(C(N)=O)C(=O)[C@@]2(O)C(O)=C3C(=O)c4c(cccc4OCCCO)C[C@H]3C[C@@H]12 | > 4 | > 4 | –
COCc1cncc(-c2ccc(O)c3c2C[C@H]2C[C@H]4[C@H](N(C)C)C(O)=C(C(N)=O)C(=O)[C@@]4(O)C(O)=C2C3=O)c1 | < 4 | < 4 | –
CCCCOc1ccc(-c2ccc(N(C)C)cc2)c2c1C(=O)C1=C(O)[C@]3(O)C(=O)C(C(N)=O)=C(O)[C@@H](N(C)C)[C@@H]3C[C@@H]1C2 | < 4 | > 4 | –
CN(C)c1cc(CNCc2ccc(C(=O)O)cc2)c(O)c2c1C[C@H]1C[C@H]3[C@H](N(C)C)C(O)=C(C(N)=O)C(=O)[C@@]3(O)C(O)=C1C2=O | > 4 | > 4 | –
COC(=O)O[C@@]12C(=O)C(C(N)=O)=C(O)[C@@H](N(C)C)[C@@H]1C[C@@H]1Cc3cccc(O)c3C(=O)C1=C2O | > 4 | > 4 | –
CN[C@@]12C(=O)C(C(N)=O)=C(O)[C@@H](N(C)C)[C@@H]1[C@@H](OC)[C@H]1C(=C2O)C(=O)c2c(O)cccc2[C@@H]1C | > 4 | > 4 | –
CN(C)c1cc(CO)c(O)c2c1C[C@H]1C[C@H]3[C@H](N(C)C)C(O)=C(C(N)=O)C(=O)[C@@]3(O)C(O)=C1C2=O | < 4 | > 4 | –
CCONC(C)c1ccc(O)c2c1C[C@H]1C[C@H]3[C@H](N(C)C)C(O)=C(C(N)=O)C(=O)[C@@]3(O)C(O)=C1C2=O (some centres unmarked) | < 4 | < 4 | –
C/C(=N\OC(C)(C)C)c1ccc(O)c2c1C[C@H]1C[C@H]3[C@H](N(C)C)C(O)=C(C(N)=O)C(=O)[C@@]3(O)C(O)=C1C2=O | < 4 | < 4 | –
CN(C)c1cc(CNCC(=O)O)c(O)c2c1C[C@H]1C[C@H]3[C@H](N(C)C)C(O)=C(C(N)=O)C(=O)[C@@]3(O)C(O)=C1C2=O | > 4 | > 4 | –
COC(=O)c1ccc(CNCc2cc(N(C)C)c3c(c2O)C(=O)C2=C(O)[C@]4(O)C(=O)C(C(N)=O)=C(O)[C@@H](N(C)C)[C@@H]4C[C@@H]2C3)cc1 | < 4 | > 4 | –
CN(C)[C@@H]1C(O)=C(C(N)=O)C(=O)[C@@]2(O)C(O)=C3C(=O)c4c(O)c(CN5CCCCC5)cc(-c5ccccn5)c4C[C@H]3C[C@@H]12 | < 4 | > 4 | –
CN(C)[C@@H]1C(O)=C(C(N)=O)C(=O)[C@@]2(O)C(O)=C3C(=O)c4c(O)c(CNC5CCCC5)cc(-c5ccoc5)c4C[C@H]3C[C@@H]12 | < 4 | > 4 | –
CC(=O)c1cc(CNCC(C)(C)C)c(O)c2c1C[C@H]1C[C@H]3[C@H](N(C)C)C(O)=C(C(N)=O)C(=O)[C@@]3(O)C(O)=C1C2=O | < 4 | > 4 | –
CONCc1cc(CNCC(C)(C)C)c(O)c2c1C[C@H]1C[C@H]3[C@H](N(C)C)C(O)=C(C(N)=O)C(=O)[C@@]3(O)C(O)=C1C2=O | < 4 | > 4 | –
CC(C)Cc1ccc(O)c2c1C[C@H]1C[C@H]3[C@H](N(C)C)C(O)=C(C(N)=O)C(=O)[C@@]3(O)C(O)=C1C2=O | < 4 | < 4 | –
CCN(CC)Cc1cc(-c2ccoc2)c2c(c1O)C(=O)C1=C(O)[C@]3(O)C(=O)C(C(N)=O)=C(O)[C@@H](N(C)C)[C@@H]3C[C@@H]1C2 | < 4 | > 4 | –
CC(C)ONC(C)c1ccc(O)c2c1C[C@H]1C[C@H]3[C@H](N(C)C)C(O)=C(C(N)=O)C(=O)[C@@]3(O)C(O)=C1C2=O (some centres unmarked) | < 4 | < 4 | –
CN(C)[C@@H]1C(O)=C(C(N)=O)C(=O)[C@@]2(O)C(O)=C3C(=O)c4c(O)c(CNCC(C)(C)C)cc(-c5ccccn5)c4C[C@H]3C[C@@H]12 | < 4 | > 4 | –
COc1ccc(-c2cc(CNC(C)CF)c(O)c3c2C[C@H]2C[C@H]4[C@H](N(C)C)C(O)=C(C(N)=O)C(=O)[C@@]4(O)C(O)=C2C3=O)cc1 (some centres unmarked) | < 4 | – | > 4

SMILES | MIC (S. aureus RN450) [mg/L] | MIC (E. coli mL308 225; gram negative bacteria) [mg/L] | MIC (E. coli mL308 225) [mg/L]
COCc1ccc(O)c2c1C[C@H]1C[C@H]3[C@H](N(C)C)C(O)=C(C(N)=O)C(=O)[C@@]3(O)C(O)=C1C2=O | < 4 | < 4 | –
CCOC(=O)/C=C/c1cc(N(C)C)c2c(c1O)C(=O)C1=C(O)[C@]3(O)C(=O)C(C(N)=O)=C(O)[C@@H](N(C)C)[C@@H]3C[C@@H]1C2 | < 4 | > 4 | –
CN(C)c1cc(CN)c(O)c2c1C[C@H]1C[C@H]3[C@H](N(C)C)C(O)=C(C(N)=O)C(=O)[C@@]3(O)C(O)=C1C2=O | < 4 | > 4 | –
CC(C)Cc1cc(N(C)C)c2c(c1O)C(=O)C1=C(O)[C@]3(O)C(=O)C(C(N)=O)=C(O)[C@@H](N(C)C)[C@@H]3C[C@@H]1C2 | < 4 | < 4 | –
CC(=O)NCc1ccc(O)c2c1C[C@H]1C[C@H]3[C@H](N(C)C)C(O)=C(C(N)=O)C(=O)[C@@]3(O)C(O)=C1C2=O | < 4 | > 4 | –
CN(C)[C@@H]1C(O)=C(C(N)=O)C(=O)[C@@]2(O)C(O)=C3C(=O)c4c(O)ccc(CNC(=O)C(C)(C)C)c4C[C@H]3C[C@@H]12 | < 4 | > 4 | –
C/C(=N/OCC(C)C)c1ccc(O)c2c1C[C@H]1C[C@H]3[C@H](N(C)C)C(O)=C(C(N)=O)C(=O)[C@@]3(O)C(O)=C1C2=O | < 4 | < 4 | –
CCCN(C)Cc1cc(N(C)C)c2c(c1O)C(=O)C1=C(O)[C@]3(O)C(=O)C(C(N)=O)=C(O)[C@@H](N(C)C)[C@@H]3C[C@@H]1C2 | < 4 | > 4 | –
CCCc1cc(N(C)C)c2c(c1O)C(=O)C1=C(O)[C@]3(O)C(=O)C(C(N)=O)=C(O)[C@@H](N(C)C)[C@@H]3C[C@@H]1C2 | < 4 | > 4 | –
CN1CCC(NCc2ccc3c(c2O)C(=O)C2=C(O)[C@]4(O)C(=O)C(C(N)=O)=C(O)[C@@H](N(C)C)[C@@H]4C[C@@H]2C3)CC1 | > 4 | > 4 | –
CN(C)c1cc(CCC(=O)NC(C)(C)C)c(O)c2c1C[C@H]1C[C@H]3[C@H](N(C)C)C(O)=C(C(N)=O)C(=O)[C@@]3(O)C(O)=C1C2=O | > 4 | > 4 | –
CSCc1cc(-c2ccccn2)c2c(c1O)C(=O)C1=C(O)[C@]3(O)C(=O)C(C(N)=O)=C(O)[C@@H](N(C)C)[C@@H]3C[C@@H]1C2 | < 4 | > 4 | –
CC(=O)Cc1cc(N(C)C)c2c(c1O)C(=O)C1=C(O)[C@]3(O)C(=O)C(C(N)=O)=C(O)[C@@H](N(C)C)[C@@H]3C[C@@H]1C2 | < 4 | > 4 | –
CC(=O)Cc1cc(-c2ccccn2)c2c(c1O)C(=O)C1=C(O)[C@]3(O)C(=O)C(C(N)=O)=C(O)[C@@H](N(C)C)[C@@H]3C[C@@H]1C2 | > 4 | > 4 | –
CN(C)[C@@H]1C(O)=C(C(N)=O)C(=O)[C@@]2(O)C(O)=C3C(=O)c4c(O)c(CS(C)(=O)=O)cc(I)c4C[C@H]3C[C@@H]12 | < 4 | > 4 | –
CN(C)[C@@H]1C(O)=C(C(N)=O)C(=O)[C@@]2(O)C(O)=C3C(=O)c4c(O)c(N)cc(-c5ccccn5)c4C[C@H]3C[C@@H]12 | < 4 | > 4 | –
CN(C)[C@@H]1C(O)=C(C(N)=O)C(=O)[C@@]2(O)C(O)=C3C(=O)c4c(O)c(CN)cc(Cl)c4C=C3C[C@@H]12 | > 4 | > 4 | –
CN(C)[C@@H]1C(O)=C(C(N)=O)C(=O)[C@@]2(O)C(O)=C3C(=O)c4c(O)ccc(Cl)c4C=C3C[C@@H]12 | < 4 | < 4 | –
CC(=O)/C=C/c1ccc(O)c2c1C[C@H]1C[C@H]3[C@H](N(C)C)C(O)=C(C(N)=O)C(=O)[C@@]3(O)C(O)=C1C2=O | < 4 | > 4 | –
CN(C)[C@@H]1C(O)=C(C(N)=O)C(=O)[C@@]2(O)C(O)=C3C(=O)c4c(O)c(CS(C)(=O)=O)cc(-c5ccccn5)c4C[C@H]3C[C@@H]12 | < 4 | > 4 | –
Cc1noc(C)c1-c1ccc(O)c2c1C[C@H]1C[C@H]3[C@H](N(C)C)C(O)=C(C(N)=O)C(=O)[C@@]3(O)C(O)=C1C2=O | < 4 | < 4 | –
Cc1ccc(O)c2c1C[C@H]1C[C@H]3[C@H](N(C)C)C(O)=C(C(N)=O)C(=O)[C@@]3(O)C(O)=C1C2=O | < 4 | < 4 | –
CN(C)c1ccc(O)c2c1C[C@H]1C[C@H]3[C@H](N(C)C)C(O)=C(C#N)C(=O)[C@@]3(O)C(O)=C1C2=O | > 4 | > 4 | –
CC(=O)N(Cc1cc(N(C)C)c2c(c1O)C(=O)C1=C(O)[C@]3(O)C(=O)C(C(N)=O)=C(O)[C@@H](N(C)C)[C@@H]3C[C@@H]1C2)CC(C)(C)C | > 4 | > 4 | –
